# Measured values from patent publication US20030163846A1, “Process for the genetic modification of a plant” (priority 2000, published 2003).
# T1: AtSUT2 (Arabidopsis thaliana, UniProt O80605)
# T1 construct: expressed in transfected cells; host or cells: Saccharomyces cerevisiae SEY6210, expression vector pDR196
# T1 sequence (O80605 1-594): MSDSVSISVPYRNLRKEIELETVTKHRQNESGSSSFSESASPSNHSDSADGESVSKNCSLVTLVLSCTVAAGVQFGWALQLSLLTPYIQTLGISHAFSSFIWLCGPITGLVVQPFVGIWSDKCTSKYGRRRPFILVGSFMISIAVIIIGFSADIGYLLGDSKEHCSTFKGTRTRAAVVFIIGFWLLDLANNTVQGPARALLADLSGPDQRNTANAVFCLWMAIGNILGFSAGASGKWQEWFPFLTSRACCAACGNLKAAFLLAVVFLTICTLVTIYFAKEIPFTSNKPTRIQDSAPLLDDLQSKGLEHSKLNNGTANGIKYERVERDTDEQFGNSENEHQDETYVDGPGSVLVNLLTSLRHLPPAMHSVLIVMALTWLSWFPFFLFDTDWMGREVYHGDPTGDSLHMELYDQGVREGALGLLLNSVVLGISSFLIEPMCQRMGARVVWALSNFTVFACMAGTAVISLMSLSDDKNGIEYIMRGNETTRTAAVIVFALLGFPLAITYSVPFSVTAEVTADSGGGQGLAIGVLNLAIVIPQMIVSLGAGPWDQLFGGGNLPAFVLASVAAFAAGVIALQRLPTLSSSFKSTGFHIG
# B1: StSUT1: high-affinity saccharose transporter SUT1 from Solanum tuberosum, SEQ ID no. 23 (protein, listed as Solanum tuberosum)
# chain: MENGTKREGLGKLTVSSSLQVEQPLAPSKLWKIIVVASIAAGVQFGWALQLSLLTPYVQLLGIPHKFASFIWLCGPISGMIVQPVVGYYSDNCSSRFGRRRPFIAAGAALVMIAVFLIGFAADLGHASGDTLGKGFKPRAIAVFVVGFWILDVANNMLQGPCRALLADLSGGKSGRMRTANAFFSFFMAVGNILGYAAGSYSHLFKVFPFSKTKACDMYCANLKSCFFIAIFLLLSLTTIALTLVRENELPEKDEQEIDEKLAGAGKSKVPFFGEIFGALKELPRPMWILLLVTCLNWIAWFPFFLYDTDWMAKEVFGGQVGDARLYDLGVRAGAMGLLLQSVVLGFMSLGVEFLGKKIGGAKRLWGILNFVLAICLAMTILVTKMAEKSRQHDPAGTLMGPTPGVKIGALLLFAALGIPLAATFSIPFALASIFSSNRGSGQGLSLGVLNLAIVVPQMLVSLVGGPWDDLFGGGNLPGFVVGAVAAAASAVLALTMLPSPPADAKPAVAMGGFH
# B2: StSUT4: saccharose transporter SUT4 from Solanum tuberosum, amino acid sequence SEQ ID no. 28 (protein, listed as Solanum tuberosum)
# chain: MPEIERHRTRHNRPAIREPVKPRVPLRLLFRVASVAGGIQFGWALQLSLLTPYVQELGIPHAWASIIWLCGPLSGLLVQPLVGHMSDKCTSRFGRRRPFIVAGAVSIMIAVLIIGFSADIGWLLGDRGEIKVRAIAAFVVGFWLLDVANNMTQGPCRALLADLTQKDHRRTRVANAYFSLFMAIGNILGFATGSYSGWFKIFPFTLNTACTINCANLKAAFIIDIIFIATTTCISISAANEQPLDPSRGSSHTREEIGESSHGQEEAFLWELFGIFKYFPGVVWVILLVTALTWIGWFPFLLFDTDWFGREIYGGEPNDGKNYSAGVRMGSLGLMLNSVLLGLTSLFMEKLCRKWGAGFTWGVSNVVMSLCFIAMLIITAVRSNIDIGQGLPPDGIVIAALVVFSILGIPLAITYSVPYALVSSRIDALGLGQGLSMGVLNLAIVFPQIVVSLGSGPWDELFGGGNSPAFVVAALSAFAGGLIAILAIPRTRVEKPKIFA
# B3: AtSUT2: SUT2 from Arabidopsis thaliana, SEQ ID no. 7; low-affinity saccharose transporter, sensor and/or regulator (protein, listed as Arabidopsis thaliana)
# chain: T1 sequence (O80605 1-594)
# Legend:
# SUT4 = experiment: stimulation/inhibition of uptake of 14C-saccharose by means of SUT4 (FIG. 5C); format: cell-based
# Method: (§1) For the saccharose uptake tests, yeast was cultivated in a liquid minimal medium containing glucose, up to an OD623 of approximately 0.8. Cells were collected by means of centrifugation, washed in 25 mM sodium phosphate buffer (pH 5.5), and suspended in the same buffer at an OD623 of 20. The uptake tests were initiated by adding glucose ending at a final concentration of 10 mM to the yeast cells one minute before adding ^14C-saccharose. Following incubation at 30° C. while stirring, cells were collected by means of vacuum filtration on fiberglass filters (1-5 minutes), washed twice with 4 mL 10 mM saccharose (at the freezing point), and the radioactivity was determined using a liquid scintillation counter. […] A significant difference compared with the vector controls is apparent.
# The stimulation of the uptake of ^14C-saccharose by means of SUT4 through glucose and the inhibition through an electron transport inhibitor (antimycin A and the protonophore CCCP is shown in FIG. 5C).
# AtSUT2 = target: T1, AtSUT2; experiment: substrate specificity and inhibition of saccharose uptake by AtSUT2 in yeast; format: cell-based; conditions: for competition with 14C-saccharose uptake: 1 mM saccharose, competitively with other sugars and sugar alcohols
# Method: The saccharose uptake by AtSUT2 was pH-dependent, and the highest uptake rates were measured at a pH of 4.0. […] To determine the substrate specificity of AtSUT2, the saccharose uptake (1 mM saccharose) was measured competitively with other sugars and sugar alcohols.
# leaf blades = conditions: high affinity/low capacity system, cited from earlier work
# [1] = 14-C saccharose uptake tests in yeast strain SEY6210 expressing AtSUT2, StSUT1 or chimeric proteins; format: cell-based; conditions: for Km: AtSUT2 at a pH of 4
# Method: It was shown that the saccharose uptake by yeast cells that express AtSUT2 was linear in the first five minutes of the test. During this period, 0.1 nmol saccharose accumulated in 10^8 cells. […] By contrast, the transport rate with StSUT1-expressing cells was 400 times greater than with AtSUT2-expressing cells. […] Using the Michaelis-Menten equation and a nonlinear regression analysis, a KM value of 11.7±1.2 mM
# Table: KM values for saccharose of the saccharose transporters StSUT1 and AtSUT2 as well as of chimeric proteins in which the N-terminal regions or central cytoplasmic loops are exchanged between the two transporters. The values were determined as mean values±standard errors from at least three different measurements. Different letters indicate significant differences (p<0.05).
# [2] = 14C-saccharose uptake tests in yeast expressing SUT4 (SUSY7/ura3); format: cell-based
# Method: The yeast strain SUSY7/ura3 is a modified version of SUSY7 (Riesmeier et al., EMBO J. (1992) 11, 4705-4713), which contains a deletion of a portion of the URA3 gene and, as a result, permits selection for uracil auxotrophy. Media that contained the 1.7 g/L yeast nitrogen base without amino acids (Difco), 2% saccharose, 20 mg/L tryptophane, and 1.5% agarose, pH 5.0, were used to analyze yeast growth on a saccharose medium.
# as §1
# Data for the kinetic analysis were obtained for SUT4 from a nonlinear regression of the uptake measurements using the Michaelis-Menten equation. Km was represented as an average of eight determinations using three independent transformants±standard deviation. The KM value for saccharose that was determined was 11.6±0.6 mM (at a pH of 5.5) and 5.9±0.8 mM (at a pH of 4.0) for SUT4 from arabidopsis. For SUT4 from Solanum tuberosum the KM value was 6.0±1.2 mM (pH 4.0) (see FIG. 5B).
molecule,measurement,setting,value
antimycin A,effect on uptake of 14C-saccharose by means of SUT4,SUT4,inhibition
same,inhibition of saccharose transport by means of AtSUT2,AtSUT2,inhibited
N#CC(C#N)=NNc1cccc(Cl)c1 [CCCP],effect on uptake of 14C-saccharose by means of SUT4,SUT4,inhibition
same,inhibition of saccharose transport by means of AtSUT2,AtSUT2,inhibited
OC[C@@H](O)[C@@H](O)[C@H](O)[C@@H](O)CO [sorbitol],competition with 14C-saccharose uptake,AtSUT2,only the saccharose and to a lesser extent maltose were able to compete significantly
OC[C@H]1O[C@@](CO)(O[C@H]2O[C@H](CO)[C@@H](O)[C@H](O)[C@H]2O)[C@@H](O)[C@@H]1O [saccharose],Km,leaf blades; read-out: Km of saccharose intake,2.7 mM
same,Vmax of saccharose intake,leaf blades,0.7 nmol cm^−2 min^−1
same,competition with 14C-saccharose uptake,AtSUT2,able to compete significantly
OC[C@@H](O)[C@@H](O)[C@H](O)[C@H](O)CO[C@H]1O[C@H](CO)[C@@H](O)[C@H](O)[C@H]1O [glucomannitol],competition with 14C-saccharose uptake,AtSUT2,only the saccharose and to a lesser extent maltose were able to compete significantly
OC[C@H]1O[C@H](OC[C@H]2O[C@H](O[C@]3(CO)O[C@H](CO)[C@@H](O)[C@@H]3O)[C@H](O)[C@@H](O)[C@@H]2O)[C@H](O)[C@@H](O)[C@H]1O [raffinose],competition with 14C-saccharose uptake,AtSUT2,only the saccharose and to a lesser extent maltose were able to compete significantly
OC[C@H](O)[C@@H](O)[C@H](O)[C@H](O)CO[C@H]1O[C@H](CO)[C@@H](O)[C@H](O)[C@H]1O [glucosorbitol],competition with 14C-saccharose uptake,AtSUT2,only the saccharose and to a lesser extent maltose were able to compete significantly
OC[C@@H](O)[C@@H](O)[C@H](O)[C@H](O)CO [mannitol],competition with 14C-saccharose uptake,AtSUT2,only the saccharose and to a lesser extent maltose were able to compete significantly
OC[C@H]1O[C@H](OC[C@H]2OC(O)(CO)[C@@H](O)[C@@H]2O)[C@H](O)[C@@H](O)[C@@H]1O (some centres unmarked) [isomaltulose],competition with 14C-saccharose uptake,AtSUT2,only the saccharose and to a lesser extent maltose were able to compete significantly
OC[C@H]1O[C@@H](O[C@H]2[C@H](O)[C@@H](O)C(O)O[C@@H]2CO)[C@H](O)[C@@H](O)[C@H]1O (some centres unmarked) [lactose],competition with 14C-saccharose uptake,AtSUT2,only the saccharose and to a lesser extent maltose were able to compete significantly
O=C[C@H](O)[C@@H](O)[C@@H](O)[C@H](O)CO [galactose],competition with 14C-saccharose uptake,AtSUT2,only the saccharose and to a lesser extent maltose were able to compete significantly
B1,"KM value for saccharose, fold lower than AtSUT2",[1],10 times
same,transport rate relative to AtSUT2-expressing cells,[1],400 times
same,Vmax,[1]; table,210.2 ± 5.7 nmol saccharose min^−1 10^8 ce
same,Vmax,[1]; yeast SEY6210,210.2 nmol·min^−1 10^8 cells^−1
same,Km,[1]; yeast SEY6210,1.7 mM
B2,functional saccharose transporter (uptake of 14C-saccharose vs vector controls),[2]; FIG. 5A,functional saccharose transporters
same,Km,"[2]; pH 4.0, Michaelis-Menten nonlinear regression, average ± standard deviation",6 ± 1.2 mM
B3,pH of highest uptake rates,[1],4.0
same,saccharose accumulated in 10^8 cells,"[1]; first five minutes of the test, in 10^8 cells",0.1 nmol
same,uptake of saccharose compared with yeast cells expressing empty vector pDR196,[1]; p<0.05,significantly higher
same,saccharose uptake at a pH of 6,[1]; pH of 6,no further saccharose uptake was measured
same,Vmax,[1]; table,1.5 ± 0.1 nmol saccharose min^−1 10^8 ce
same,Vmax,[1]; yeast SEY6210,1.5 nmol·min^−1 10^8 cells^−1
same,Km,[1]; yeast SEY6210,11.7 mM
